According to ChEMBL document CHEMBL1130432, “Neuritogenic effect of epolactaene derivatives on human neuroblastoma cells which lack high-affinity nerve growth factor receptors” (1997):

Tests used:
Type in all cases: functional, Homo sapiens
SH-SY5Y [1] = assay: Ability to induce neurite outgrowth in SH-SY5Y cells measured as percentage of neurite bearing cells/total cells at 25.4 uM; Range is 5-20%
SH-SY5Y [2] = assay: Ability to induce neurite outgrowth in SH-SY5Y cells measured as percentage of neurite bearing cells/total cells at 98.8 uM; Range is 5-20%
SH-SY5Y [3] = assay: Ability to induce neurite outgrowth in SH-SY5Y cells measured as percentage of neurite bearing cells/total cells at 59.4 uM
SH-SY5Y [4] = assay: Ability to induce neurite outgrowth in SH-SY5Y cells measured as percentage of neurite bearing cells/total cells at 29.5 uM; Range is 5-20%
SH-SY5Y [5] = assay: Ability to induce neurite outgrowth in SH-SY5Y cells measured as percentage of neurite bearing cells/total cells at 17.8 uM; Range is 20-40%
SH-SY5Y [6] = assay: Ability to induce neurite outgrowth in SH-SY5Y cells measured as percentage of neurite bearing cells/total cells at 118.8 uM; Range is 5-20%

SMILES: CCCCCCCCCCCCCCCCN1C(=O)C(C(C)=O)=C(C)C1(C)O (stereo unspecified)
- Neurite bearing cells/total cells (SH-SY5Y [1]): 20%

SMILES: CCCCCCOC1(C)NC(=O)C(C(C)=O)=C1C (stereo unspecified)
- Neurite bearing cells/total cells (SH-SY5Y [2]): 20%

SMILES: CCCCCCCCCCCCCCCCCCOC1(C)NC(=O)C(C(C)=O)=C1C (stereo unspecified)
- Neurite bearing cells/total cells (SH-SY5Y [3]): >40%

SMILES: CCCCCCCCCCCCN1C(=O)C(C(C)=O)=C(C)C1(C)O (stereo unspecified)
- Neurite bearing cells/total cells (SH-SY5Y [4]): 20%

SMILES: CCCCCCCCN1C(=O)C(C(C)=O)=C(C)C1(C)O (stereo unspecified)
- Neurite bearing cells/total cells (SH-SY5Y [5]): 40%

SMILES: CCCCCCCCCCCCCCCCCCN1C(=O)C(C(C)=O)=C(C)C1(C)O (stereo unspecified)
- Neurite bearing cells/total cells (SH-SY5Y [6]): 20%
